Data from article PMC10818931, “In Vitro Evaluation of Drug–Drug Interaction Potential of Epetraborole, a Novel Bacterial Leucyl-tRNA Synthetase Inhibitor” (Pharmaceuticals, 2024).

What was measured:
BCRP = target: T1, BCRP (Homo sapiens, UniProt Q9UNQ0); assay: Substrate potential for BCRP, bidirectional permeability in BCRP-MDCK; type: in vitro ADME; conditions: human; BCRP-MDCK; read-out: Efflux ratio of control compound
T1 construct: host or cells: MDCK (BCRP-MDCK)
T1 sequence (Q9UNQ0 1-655): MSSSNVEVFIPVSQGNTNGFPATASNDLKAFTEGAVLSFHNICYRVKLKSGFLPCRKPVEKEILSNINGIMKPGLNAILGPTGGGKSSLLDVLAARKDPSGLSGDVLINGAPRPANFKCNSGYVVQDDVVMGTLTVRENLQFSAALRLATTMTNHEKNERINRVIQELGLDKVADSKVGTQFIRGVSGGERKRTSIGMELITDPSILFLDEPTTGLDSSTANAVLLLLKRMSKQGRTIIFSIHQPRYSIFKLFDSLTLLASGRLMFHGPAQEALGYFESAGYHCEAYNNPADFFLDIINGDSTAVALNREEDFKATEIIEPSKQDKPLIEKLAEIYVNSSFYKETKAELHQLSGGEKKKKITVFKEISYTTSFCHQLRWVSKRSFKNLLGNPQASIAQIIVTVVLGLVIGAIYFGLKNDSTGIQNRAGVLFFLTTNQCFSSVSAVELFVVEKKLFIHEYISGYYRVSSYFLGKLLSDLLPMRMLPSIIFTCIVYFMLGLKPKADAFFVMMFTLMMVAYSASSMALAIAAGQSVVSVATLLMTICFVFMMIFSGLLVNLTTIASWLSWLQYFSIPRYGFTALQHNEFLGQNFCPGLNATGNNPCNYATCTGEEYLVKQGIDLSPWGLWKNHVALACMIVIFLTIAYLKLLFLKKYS

CYP1A2 = assay: CYP mRNA induction in plated human hepatocytes (qPCR); conditions: CYP1A2, flumazenil 25 µM
Method: (§1) The induction potential of EBO and M3 on CYP1A2, CYP2B6, and 3A4 was evaluated by incubating the test articles with plated human hepatocytes from 3 individual donors (GKJ, ZEY, WKF) in triplicate according to WuXi AppTec (Cranbury, NJ, USA) SOP.
(§2) At the end of incubation, the RNA of human hepatocytes was isolated and the mRNA expression levels of CYP 1A2, 2B6, and 3A4 were evaluated by using real-time polymerase chain reaction (qPCR) after being reverse-transcribed (RT) to cDNA following manufacturer’s instruction (thermos Fisher Scientific (Waltham, MA, USA). On the last dosing day with EBO or M3, incubation samples were extracted in triplicate by the addition of ice-cold quench solutions at 0, 0.5, 1, 2, 4, 6, and 24 h after dosing and the extracted samples were analyzed using LC-MS/MS to determine the EBO or M3 concentration in each sample.

CYP2B6 = assay: as above; conditions: CYP2B6; for mRNA Induction Fold in Controls NC: flumazenil 25 µM; for mRNA Induction Fold in Controls PC: phenobarbital 750 µM
Method: as §1, §2

CYP3A4 = assay: as above; conditions: CYP3A4, flumazenil 25 µM
Method: as §1, §2

in vitro = conditions: human, Caco-2
Method: ^14C-EBO permeability in Caco-2 Cells (MDR1/Protein Glycoprotein or P-gp) was determined using methodologies described previously. The apparent permeability of ^14C-EBO was determined in both the apical to basolateral and the basolateral to apical directions, in triplicate, at final concentrations of 1, 10, and 100 μM. Cell monolayers were incubated with ^14C-EBO at 37 °C for 1, 2, 3, and 4 h. The transepithelial electrical resistance (TEER) values of the monolayers prior to and following each experiment were measured to confirm the integrity of the Caco-2 cell monolayers. The apparent permeability of ^14C-EBO (at a final concentration of 10 μM) was determined in both the apical to basolateral and basolateral to apical directions under the same conditions as previously described in the presence of P-gp inhibitors cyclosporine A (10 μM) and verapamil (100 μM) in the donor compartment.

[1] = donor one, control of EBO experiment
[2] = donor one, control of M3 experiment
[3] = donor three, control of EBO experiment
[4] = donor three, control of M3 experiment
[5] = donor two, control of EBO experiment
[6] = donor two, control of M3 experiment

Nc1nc(Cl)nc2c1ncn2[C@H]1C[C@H](O)[C@@H](CO)O1 [cladribine, reference compound]
efflux ratio (BCRP): 288

CCOC(=O)c1ncn2c1CN(C)C(=O)c1cc(F)ccc1-2 [flumazenil]
mRNA Induction Fold in Controls NC (CYP1A2; [1]): 0.71 Fold
mRNA Induction Fold in Controls NC (CYP1A2; [2]): 0.94 Fold
mRNA Induction Fold in Controls NC (CYP1A2; [3]): 0.75 Fold
mRNA Induction Fold in Controls NC (CYP1A2; [4]): 0.74 Fold
mRNA Induction Fold in Controls NC (CYP1A2; [5]): 0.94 Fold
mRNA Induction Fold in Controls NC (CYP1A2; [6]): 0.82 Fold
mRNA Induction Fold in Controls NC (CYP2B6; [1]): 0.84 Fold
mRNA Induction Fold in Controls NC (CYP2B6; [2]): 0.91 Fold
mRNA Induction Fold in Controls NC (CYP2B6; [3]): 1.00 Fold
mRNA Induction Fold in Controls NC (CYP2B6; [4]): 0.87 Fold
mRNA Induction Fold in Controls NC (CYP2B6; [5]): 1.09 Fold
mRNA Induction Fold in Controls NC (CYP2B6; [6]): 0.87 Fold
mRNA Induction Fold in Controls NC (CYP3A4; [1]): 0.89 Fold
mRNA Induction Fold in Controls NC (CYP3A4; [2]): 1.06 Fold
mRNA Induction Fold in Controls NC (CYP3A4; [3]): 0.98 Fold
mRNA Induction Fold in Controls NC (CYP3A4; [4]): 0.87 Fold
mRNA Induction Fold in Controls NC (CYP3A4; [5]): 0.96 Fold
mRNA Induction Fold in Controls NC (CYP3A4; [6]): 0.66 Fold

OC[C@@H](O)[C@@H](O)[C@H](O)[C@H](O)CO [mannitol, reference compound]
Papp (in vitro): 0.19 to 0.69 ×10⁻⁶ cm/s

CCC1(c2ccccc2)C(=O)NC(=O)NC1=O [phenobarbital]
mRNA Induction Fold in Controls PC (CYP2B6; [1]): 7.45 Fold
mRNA Induction Fold in Controls PC (CYP2B6; [2]): 9.17 Fold
mRNA Induction Fold in Controls PC (CYP2B6; [3]): 6.64 Fold
mRNA Induction Fold in Controls PC (CYP2B6; [4]): 6.86 Fold
mRNA Induction Fold in Controls PC (CYP2B6; [5]): 6.88 Fold
mRNA Induction Fold in Controls PC (CYP2B6; [6]): 6.29 Fold
